Reference: US11591342B2, “Heterocyclic compound, application thereof and pharmaceutical composition comprising same” (SUZHOU SINOVENT PHARMACEUTICALS CO., LTD., priority 2018, dated 2023)
pIC50: −log10 of the molar value.

Assays:
Autotaxin (ATX) = Autotaxin (ATX) (Homo sapiens (Human), UniProt Q13822); experiment: ATX bioactivity assay (Amplex Red / choline oxidase / HRP fluorescence, LPC 16:0 substrate); format: biochemical; conditions: 30 min room temperature
LPA18:2 in mouse plasma = experiment: Inhibition of LPA in mouse plasma (plasma LPA18:2 assay, LC-MS/MS); format: biochemical, CD1 mice; conditions: fresh CD1 mouse plasma, LPA18:2, 37° C. for 120 min
Procedure: Effect Example 2. Inhibition of LPA in Mouse Plasma by Compounds
20 mM stock solutions of the compounds were prepared with DMSO and then diluted to 1 mM, which was subjected to a serial 3-fold dilution to yield 10 working solutions.
Collection of Fresh Mouse Plasma:
CD1 mice were euthanized by CO2 inhalation. Approximately 1 mL of whole blood was taken by cardiac puncture, with EDTA-K2 for anticoagulation. The blood was centrifuged at 3220 g for 10 min at 4° C. for plasma collection.
Reactions were performed in a 96-well plate, and the samples were tested in duplicate. 1 μL of each working solution was added to 100 μL of plasma, with the final concentrations of […]. 1 μL of DMSO was added to plasma to serve as blank. The samples were incubated in a water bath at 37° C. for 120 min, and 600 μL of 10 μM tolbutamide in methanol was added to terminate the reaction. Tolbutamide also served as an internal standard. After 5 min of vortex mixing, the samples were centrifuged at 3220 g for 45 min at 4° C. to precipitate the protein. 100 μL of the supernatant was transferred to a new plate, diluted with water based on LC-MS response and peak shapes, mixed well and analyzed by LC-MS/MS.
LPA18:2 was quantified using peak area ratio (LPA18:2/internal standard), requiring no standard curve. For test compounds of different concentrations, LPA data was represented by a percentage decrease of LPA: 100-[((LPA peak area ratio of compound)/(LPA peak area ratio of control))×100]. IC50 was calculated using Graphpad Prism 6.0 software.

CYP3A4 = CYP3A4 (Homo sapiens (Human), UniProt P08684); experiment: Time-dependent inhibition of CYP3A4 (TDI assay, human liver microsomes); format: in vitro ADME; conditions: for CYP3A4 TDI % @ 10 μM: human liver microsomes, Midazolam substrate, 30 min with NADPH vs 0 min; for time-dependent inhibition on CYP3A4 (conclusion): conclusion drawn from Table 3, 10 μM
CYP3A4, sequence (P08684 whole entry): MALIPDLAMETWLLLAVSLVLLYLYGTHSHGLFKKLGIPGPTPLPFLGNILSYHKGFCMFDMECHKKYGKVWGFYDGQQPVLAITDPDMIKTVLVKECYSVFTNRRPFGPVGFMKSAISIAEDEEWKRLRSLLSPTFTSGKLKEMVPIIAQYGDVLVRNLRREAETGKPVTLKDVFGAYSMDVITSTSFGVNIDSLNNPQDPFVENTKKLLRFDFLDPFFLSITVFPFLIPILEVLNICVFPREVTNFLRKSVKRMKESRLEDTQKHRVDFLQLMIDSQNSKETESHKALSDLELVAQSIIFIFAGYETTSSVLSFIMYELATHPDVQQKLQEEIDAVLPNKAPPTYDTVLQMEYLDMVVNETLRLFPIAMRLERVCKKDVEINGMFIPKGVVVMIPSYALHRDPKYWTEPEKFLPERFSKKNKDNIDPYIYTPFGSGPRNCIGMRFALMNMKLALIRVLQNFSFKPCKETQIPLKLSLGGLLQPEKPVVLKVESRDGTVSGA
Procedure: Effect Example 3. Time-Dependent Inhibition of CYP3A4
1. Preheating potassium phosphate buffer (K-buffer), pH 7.4: 100 mM potassium phosphate buffer (K-buffer) was prepared by mixing 9.5 mL of solution A with 40.5 mL of solution B, diluting to 500 mL with ultrapure water, and then adjusting to pH 7.4 with KOH or H3PO4, wherein the solution A (1M potassium dihydrogenphosphate) was prepared by dissolving 136.5 g of potassium dihydrogenphosphate in […] of ultrapure water.
2. Preparation of human liver microsome suspension (1.3 mg/mL, 1.3×, stock: 20 mg/mL): 100 μL of human liver microsome suspension (20 mg/mL) was added into […] of K-buffer.
3. Preparation of NADPH solution (4.167 mg/mL, 5 mM): 8.3 mg of NADPH was added into 2 mL of buffer.
4. Preparation of substrate solution (1.5× final): 1.5 μL of 10 mM Midazolam was added to 998.5 μL of K-buffer to yield the substrate mixture.
5. Preparation of 100× test compound, reference and blank control solutions: 3 μL of 10 mM stock solution of test compound was added to 27 μL of ACN; 3 μL of positive control stock solution was added to 27 μL of ACN; and 3 μL of DMSO was added to 27 μL of ACN to serve as blank control.
6. Primary preheating system: An NADPH-free system for 0 min incubation: 78 μL of 1.3× human liver microsome solution (step 2) was mixed with 1 μL of the 100× stock solutions of positive control, test compound, or blank control (step 5); A system containing NADPH for 30 min incubation: 78 μL of 1.3× human liver microsome solution (step 2) was mixed with 1 μL of the 100× stock solutions of positive control, test compound, or blank control (step 5).
7. Secondary preheating system: 150 μL of the substrate solution prepared in step 4 was added into a deep well plate together with the NADPH solution from step 3
8. The samples were preheated for 10 min in a 37° C. water bath.
9. Reaction procedure: (1) reaction for 0 min: 21 μL of K-buffer was added to the primary preheating system and mixed well without incubation; 20 μL of the mixture was immediately transferred into the plate of the secondary preheating system; after mixing, the secondary system was incubated in a 37° C. water bath for 15 min, and 60 μL of the reaction mixture was added into 120 μL of acetonitrile containing internal standard to terminate the reaction; and (2) reaction for 30 min: 21 μL of NADPH was added into the primary preheating system for a 30-min incubation after mixing; 20 μL of the mixture was added into the secondary preheating system prior to mixing; the mixture was incubated in a 37° C. water bath for 15 min, and 60 μL of the reaction mixture was added into 120 μL of acetonitrile containing internal standard to terminate the reaction.
10. After termination, the samples were shaken on a shaker at 600 rpm for 10 min and centrifuged at 5594 g for 15 min prior to LC-MS/MS analysis.

## CCN(c1nc(-c2ccc(F)cc2)c(C#N)s1)c1c2cc(N3CCN(CC(=O)N4CC(O)C4)CC3C(F)(F)F)cc(F)c2nn1CC (single isomer, unassigned) [Compound S-0134B, 2-(ethyl (2-ethyl-7-fluoro-5-(4-(2-(3-hydroxyazetidin-1-yl)-2-oxoethyl)-2-(trifluoromethyl)piperazin-1-yl)-2H-indazol-3-yl)amino)-4-(4-fluorophenyl)thiazole-5-carbonitrile]
Autotaxin (ATX)
  pIC50: 7.96
LPA18:2 in mouse plasma
  pIC50: 7.01
CYP3A4
  CYP3A4 TDI % @ 10 μM: 41.82%
  time-dependent inhibition on CYP3A4 (conclusion): weak time-dependent inhibition on CYP3A4

## CCc1nc2ncc(N3CCN(CC(=O)N4CC(O)C4)CC3)cn2c1N(C)c1nc(-c2ccc(F)cc2)c(C#N)s1 [Compound S-0021, 2-((2-ethyl-6-(4-(2-(3-hydroxyazetidin-1-yl)-2-oxoethyl)piperazin-1-yl)imidazo[1,2-a]pyrimidin-3-yl)(methyl)amino)-4-(4-fluorophenyl)thiazole-5-carbonitrile]
Autotaxin (ATX)
  pIC50: 6.99
LPA18:2 in mouse plasma
  pIC50: 6.10
CYP3A4
  CYP3A4 TDI % @ 10 μM: 1.67%
  time-dependent inhibition on CYP3A4 (conclusion): no time-dependent inhibition on CYP3A4

## CCn1nc2c(F)cc(N3CCN(CC(=O)N4CC(O)C4)CC3)cc2c1N(C)c1nc(-c2ccc(F)cc2)c(C#N)s1 [Compound S-0025, 2-((2-ethyl-7-fluoro-5-(4-(2-(3-hydroxyazetidin-1-yl)-2-oxoethyl)piperazin-1-yl)-2H-indazol-3-yl)(methyl)amino)-4-(4-fluorophenyl)thiazole-5-carbonitrile]
Autotaxin (ATX)
  pIC50: 7.06
LPA18:2 in mouse plasma
  pIC50: 6.88
CYP3A4
  CYP3A4 TDI % @ 10 μM: 34.21%
  time-dependent inhibition on CYP3A4 (conclusion): weak time-dependent inhibition on CYP3A4

## CCc1nn2c(C)cc(N3CCN(CC(=O)N4CC(O)C4)CC3)nc2c1N(C)c1nc(-c2ccc(F)cc2)c(C#N)s1 [Compound S-0035, 2-((2-ethyl-5-(4-(2-(3-hydroxyazetidin-1-yl)-2-oxoethyl)piperazin-1-yl)-7-methylpyrazolo[1,5-a]pyrimidin-3-yl)(methyl)amino)-4-(4-fluorophenyl)thiazole-5-carbonitrile]
Autotaxin (ATX)
  pIC50: 7.21
LPA18:2 in mouse plasma
  pIC50: 6.52
CYP3A4
  CYP3A4 TDI % @ 10 μM: −4.84%
  time-dependent inhibition on CYP3A4 (conclusion): no time-dependent inhibition on CYP3A4

## CCc1nc2ncc(N3CCN(CC(=O)N4CC(O)C4)CC3)cn2c1N(CC)c1nc(-c2ccc(F)cc2)c(C#N)s1 [Compound S-0058, 2-(ethyl(2-ethyl-6-(4-(2-(3-hydroxyazetidin-1-yl)-2-oxoethyl)piperazin-1-yl)imidazo[1,2-a]pyrimidin-3-yl)amino)-4-(4-fluorophenyl)thiazole-5-carbonitrile]
Autotaxin (ATX)
  pIC50: 7.40
LPA18:2 in mouse plasma
  pIC50: 6.43

## CCn1nc2ccc(N3CCN(CC(=O)N4CC(O)C4)CC3)nc2c1N(C)c1nc(-c2ccc(F)cc2)c(C#N)s1 [Compound S-0094, 2-((2-ethyl-5-(4-(2-(3-hydroxyazetidin-1-yl)-2-oxoethyl)piperazin-1-yl)-2H-pyrazolo[4,3-b]pyridin-3-yl)(methyl)amino)-4-(4-fluorophenyl) thiazole-5-carbonitrile]
Autotaxin (ATX)
  pIC50: 7.64
LPA18:2 in mouse plasma
  pIC50: 7.89
CYP3A4
  CYP3A4 TDI % @ 10 μM: 20.88%
  time-dependent inhibition on CYP3A4 (conclusion): no time-dependent inhibition on CYP3A4

## CCn1nc2c(C)cc(N3CCN(CC(=O)N4CC(O)C4)CC3)nc2c1N(C)c1nc(-c2ccc(F)cc2)c(C#N)s1 [Compound S-0095, 2-((2-ethyl-5-(4-(2-(3-hydroxyazetidin-1-yl)-2-oxoethyl)piperazine-1-yl)-7-methyl-2H-pyrazolo[4,3-b]pyridin-3-yl)(methyl)amino)-4-(4-fluorophenyl)thiazole-5-carbonitrile]
Autotaxin (ATX)
  pIC50: 6.92
LPA18:2 in mouse plasma
  pIC50: 6.51
CYP3A4
  CYP3A4 TDI % @ 10 μM: 2.91%
  time-dependent inhibition on CYP3A4 (conclusion): no time-dependent inhibition on CYP3A4

## CCc1oc2ccc(N3CCN(CC(=O)N4CC(O)C4)CC3)nc2c1N(C)c1nc(-c2ccc(F)cc2)c(C#N)s1 [Compound S-0097, 2-((2-ethyl-5-(4-(2-(3-hydroxyazetidin-1-yl)-2-oxoethyl)piperazin-1-yl)furo[3,2-b]pyridin-3-yl)(methyl)amino)-4-(4-fluorophenyl)thiazole-5-carbonitrile]
Autotaxin (ATX)
  pIC50: 6.80
LPA18:2 in mouse plasma
  pIC50: 6.80
CYP3A4
  CYP3A4 TDI % @ 10 μM: 12.51%
  time-dependent inhibition on CYP3A4 (conclusion): no time-dependent inhibition on CYP3A4

## CCc1[nH]c2ccc(N3CCN(CC(=O)N4CC(O)C4)CC3)nc2c1N(C)c1nc(-c2ccc(F)cc2)c(C#N)s1 [Compound S-0098, 2-((2-ethyl-5-(4-(2-(3-hydroxyazetidin-1-yl)-2-oxoethyl)piperazin-1-yl)-1H-pyrrolo[3,2-b]pyridin-3-yl)(methyl)amino)-4-(4-fluorophenyl) thiazole-5-carbonitrile]
Autotaxin (ATX)
  pIC50: 7.51
LPA18:2 in mouse plasma
  pIC50: 8.70
CYP3A4
  CYP3A4 TDI % @ 10 μM: 37.19%
  time-dependent inhibition on CYP3A4 (conclusion): weak time-dependent inhibition on CYP3A4

## CCc1oc2ccc(N3CCN(CC(=O)N4CC(O)C4)CC3)nc2c1N(CC)c1nc(-c2ccc(F)cc2)c(C#N)s1 [Compound S-0105CP, 2-(ethyl(2-ethyl-5-(4-(2-(3-hydroxyazetidin-1-yl)-2-oxoethyl)piperazin-1-yl)furo[3,2-b]pyridin-3-yl)amino)-4-(4-fluorophenyl)thiazole-5-carbonitrile]
Autotaxin (ATX)
  pIC50: 7.31
LPA18:2 in mouse plasma
  pIC50: 6.95
CYP3A4
  CYP3A4 TDI % @ 10 μM: 0%
  time-dependent inhibition on CYP3A4 (conclusion): no time-dependent inhibition on CYP3A4

## CCN(c1nc(-c2ccc(F)cc2)c(C#N)s1)c1c2cc(N3CCN(CC(=O)N4CC(O)C4)[C@H](C(F)(F)F)C3)cc(F)c2nn1CC [Compound S-0135A, (S)-2-(ethyl(2-ethyl-7-fluoro-5-(4-(2-(3-hydroxyazetidin-1-yl)-2-oxoethyl)-3-(trifluoromethyl)piperazin-1-yl)-2H-indazol-3-yl)amino)-4-(4-fluorophenyl)thiazole-5-carbonitrile]
Autotaxin (ATX)
  pIC50: 6.88
LPA18:2 in mouse plasma
  pIC50: 6.35

## CCn1nc2c(C)cc(N3CCN(CC(=O)N4CC(O)C4)CC3)nc2c1N(CC(F)F)c1nc(-c2ccc(F)cc2)c(C#N)s1 [Compound S-0141, 2-((2,2-difluoroethyl)(2-ethyl-5-(4-(2-(3-hydroxyazetidin-1-yl)-2-oxoethyl)piperazin-1-yl)-7-methyl-2H-pyrazolo[4,3-b]pyridin-3-yl)amino)-4-(4-fluorophenyl)thiazole-5-carbonitrile]
Autotaxin (ATX)
  pIC50: 7.37
LPA18:2 in mouse plasma
  pIC50: 6.82

## CCn1nc2c(C)cc(N3CCN(CC(=O)N4CC(O)C4)CC3)nc2c1N(CCF)c1nc(-c2ccc(F)cc2)c(C#N)s1 [Compound S-0144, 2-((2-ethyl-5-(4-(2-(3-hydroxyazetidin-1-yl)-2-oxoethyl)piperazin-1-yl)-7-methyl-2H-pyrazolo[4,3-b]pyridin-3-yl)(2-fluoroethyl)amino)-4-(4-fluorophenyl)thiazole-5-carbonitrile]
Autotaxin (ATX)
  pIC50: 7.57
LPA18:2 in mouse plasma
  pIC50: 7.17
